Where “and” joins values, the source holds several entries; their conditions need not be identical. Equal values may be shown once. Toxic doses and inconclusive results are not listed.

The experiment has as its system P388 leukemia ip, CD2F1 mice, survival T/C. As to the kind of experiment: NCI In Vivo Anticancer Drug Screen. Data for tumor model P388 Leukemia (intraperitoneal) in CD2F1 (CDF1) mice. To be noted: endpoint: median survival time, higher = longer survival. Put shortly: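 Mice carrying the transplanted tumor received test compound or vehicle. Survival was recorded in each group, and the value is the treated-group measurement divided by that of the vehicle-treated control group.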

Setting [1] is: dose: 50.0 mg/kg/injection, schedule: Q01DX009 (ip), vehicle: saline with Tween-80.
Where [2] appears, read: dose: 100.0 mg/kg/injection, schedule: Q01DX009 (ip), vehicle: saline with Tween-80.
[3] abbreviates: dose: 200.0 mg/kg/injection, schedule: Q01DX009 (ip), vehicle: saline with Tween-80.
[4] abbreviates: dose: 100.0 mg/kg/injection, schedule: Q01DX009 (ip), vehicle: saline.
Where [5] appears, read: dose: 50.0 mg/kg/injection, schedule: Q01DX005 (ip), vehicle: Klucel (hydroxypropylcellulose) (HPC).
The mark [6] stands for this setting: dose: 100.0 mg/kg/injection, schedule: Q01DX005 (ip), vehicle: Klucel (hydroxypropylcellulose) (HPC).
[7] abbreviates: dose: 50.0 mg/kg/injection, schedule: Q01DX005 (ip), vehicle: saline with Tween-80.
Setting [8] is: dose: 100.0 mg/kg/injection, schedule: Q01DX005 (ip), vehicle: saline with Tween-80.
Where [9] appears, read: dose: 200.0 mg/kg/injection, schedule: Q01DX005 (ip), vehicle: saline with Tween-80.

For the molecule `O=C(Nc1cccc(Cl)c1)ON1C(=O)C2C(C1=O)C1(Cl)C(Cl)C(Cl)C2(Cl)C1(Cl)Cl` (stereo not given), the T/C runs as follows: under setting [1], 103 % of control and 110 % of control; under setting [2], 110 % of control and 112 % of control and 120 % of control; under setting [3], 106 % of control and 124 % of control; (dose: 400.0 mg/kg/injection, schedule: Q01DX009 (ip), vehicle: saline with Tween-80) 108 % of control and 110 % of control.

On to `CCC(C)OC(=S)SSC(=S)OC(C)CC` (stereo not given), for which the T/C runs as follows: (dose: 25.0 mg/kg/injection, schedule: Q01DX009 (ip), vehicle: suspension in saline) 105 % of control; (dose: 50.0 mg/kg/injection, schedule: Q01DX009 (ip), vehicle: suspension in saline) 96 % of control; (dose: 100.0 mg/kg/injection, schedule: Q01DX009 (ip), vehicle: suspension in saline) 98 % of control; (dose: 200.0 mg/kg/injection, schedule: Q01DX009 (ip), vehicle: suspension in saline) 109 % of control.

As to `O=[N+]([O-])c1cc2[nH]cnc2c([N+](=O)[O-])c1N1CCCCC1`, the T/C by setting is: (dose: 25.0 mg/kg/injection, schedule: Q04DX003 (ip), vehicle: saline with Tween-80) 92 % of control; (dose: 50.0 mg/kg/injection, schedule: Q04DX003 (ip), vehicle: saline with Tween-80) 92 % of control; (dose: 100.0 mg/kg/injection, schedule: Q04DX003 (ip), vehicle: saline with Tween-80) 100 % of control.

For the molecule `CC1=C(C)C2(C)c3ccccc3NC(=S)C12C` (stereo not given), the T/C is, setting by setting: (dose: 100.0 mg/kg/injection, schedule: Q01DX001 (ip), vehicle: Klucel (hydroxypropylcellulose) (HPC)) 101 % of control; (dose: 200.0 mg/kg/injection, schedule: Q01DX001 (ip), vehicle: Klucel (hydroxypropylcellulose) (HPC)) 105 % of control; (dose: 400.0 mg/kg/injection, schedule: Q01DX001 (ip), vehicle: Klucel (hydroxypropylcellulose) (HPC)) 102 % of control.

As for `CSc1c2ccncc2c(C)c2c1[nH]c1ccccc12`, the T/C by setting is: (dose: 6.25 mg/kg/injection, schedule: Q04DX002 (ip), vehicle: distilled water + Tween-80) 95 % of control; (dose: 12.5 mg/kg/injection, schedule: Q04DX002 (ip), vehicle: distilled water + Tween-80) 94 % of control; (dose: 25.0 mg/kg/injection, schedule: Q04DX002 (ip), vehicle: distilled water + Tween-80) 88 % of control; (dose: 50.0 mg/kg/injection, schedule: Q04DX002 (ip), vehicle: distilled water + Tween-80) 89 % of control; (dose: 100.0 mg/kg/injection, schedule: Q04DX002 (ip), vehicle: distilled water + Tween-80) 95 % of control; (dose: 200.0 mg/kg/injection, schedule: Q04DX002 (ip), vehicle: distilled water + Tween-80) 98 % of control.

Consider `CC(=O)OCC1OC(n2ncc(=O)[nH]c2=O)C(OC(C)=O)C1OC(C)=O` (stereo not given), for which the T/C under setting [1] was 122 % of control; the T/C (dose: 100.0 mg/kg/injection, schedule: Q01DX009 (ip), vehicle: saline sonified) was 118 % of control; the T/C under setting [2] is 122 % of control; the T/C (dose: 200.0 mg/kg/injection, schedule: Q01DX009 (ip), vehicle: saline sonified) was 122 % of control; the T/C (dose: 400.0 mg/kg/injection, schedule: Q01DX009 (ip), vehicle: saline sonified) was 118 % of control; the T/C (dose: 800.0 mg/kg/injection, schedule: Q01DX009 (ip), vehicle: saline with Tween-80) was 100 % of control.

Regarding `C=C(C)C(=O)NC(C)C(=O)O` (stereo not given), the T/C by setting is: (dose: 50.0 mg/kg/injection, schedule: Q01DX009 (ip), vehicle: saline) 106 % of control; under setting [4], 100 % of control; (dose: 200.0 mg/kg/injection, schedule: Q01DX009 (ip), vehicle: saline) 100 % of control.

In the case of `COC(=O)/C=C1\C(=O)OC2(C)CCCCC12` (stereo not given), the T/C by setting is: under setting [1], 95 % of control; under setting [2], 97 % of control; under setting [3], 100 % of control.

In the case of `COc1ccc2c(C)cc(N/N=C/c3ccccc3)nc2c1`, the T/C runs as follows: under setting [5], 89 % of control; under setting [6], 98 % of control; (dose: 200.0 mg/kg/injection, schedule: Q01DX005 (ip), vehicle: Klucel (hydroxypropylcellulose) (HPC)) 98 % of control.

On to `Cc1noc(C)c1Br`, for which the T/C is, setting by setting: under setting [1], 97 % of control; under setting [2], 102 % of control; under setting [3], 102 % of control.

For `CC1CN1P(=O)(N1CCCC1)N1CC1C` (stereo not given), the T/C runs as follows: (dose: 4.4 mg/kg/injection, schedule: Q01DX009 (ip), vehicle: saline) 109 % of control; (dose: 6.6 mg/kg/injection, schedule: Q01DX009 (ip), vehicle: saline) 120 % of control; (dose: 12.5 mg/kg/injection, schedule: Q04DX003 (ip), vehicle: saline) 100 % of control; (dose: 25.0 mg/kg/injection, schedule: Q01DX009 (ip), vehicle: saline) 150 % of control; (dose: 25.0 mg/kg/injection, schedule: Q04DX003 (ip), vehicle: saline) 108 % of control; (dose: 66.0 mg/kg/injection, schedule: Q04DX003 (ip), vehicle: saline) 166 % of control. Besides, the T/C by setting is: under setting [4], 86 % of control; (dose: 100.0 mg/kg/injection, schedule: Q04DX003 (ip), vehicle: saline) 175 % of control.

As to `CC(C)(C)c1ccc(O)c(C(c2cc(C(C)(C)C)ccc2O)c2cc(C(C)(C)C)ccc2O)c1`, the T/C is 97 % of control (dose: 100.0 mg/kg/injection, schedule: Q01DX001 (ip), vehicle: saline with Tween-80); 98 % of control (dose: 200.0 mg/kg/injection, schedule: Q01DX001 (ip), vehicle: saline with Tween-80); 98 % of control (dose: 400.0 mg/kg/injection, schedule: Q01DX001 (ip), vehicle: saline with Tween-80).

On to `CCCCCCc1cc(-c2cc(CCCCCC)[nH]n2)n[nH]1`, for which the T/C is, setting by setting: (dose: 60.0 mg/kg/injection, schedule: Q01DX005 (ip), vehicle: Klucel (hydroxypropylcellulose) (HPC)) 100 % of control; (dose: 120.0 mg/kg/injection, schedule: Q01DX005 (ip), vehicle: Klucel (hydroxypropylcellulose) (HPC)) 98 % of control; (dose: 240.0 mg/kg/injection, schedule: Q01DX005 (ip), vehicle: Klucel (hydroxypropylcellulose) (HPC)) 95 % of control.

Regarding `Nc1ccc(C(=O)c2ccccc2)cc1`, the T/C (dose: 25.0 mg/kg/injection, schedule: Q01DX009 (ip), vehicle: saline with Tween-80) is 93 % of control; the T/C under setting [1] is 100 % of control; the T/C under setting [2] is 102 % of control.

As to `CC(C)=CCCC1(C)OC2(C)CCC1CC2` (stereo not given), the T/C is, setting by setting: (dose: 0.75 mg/kg/injection, schedule: Q01DX005 (ip), vehicle: Klucel (hydroxypropylcellulose) (HPC)) 95 % of control; (dose: 1.5 mg/kg/injection, schedule: Q01DX005 (ip), vehicle: Klucel (hydroxypropylcellulose) (HPC)) 95 % of control; (dose: 3.0 mg/kg/injection, schedule: Q01DX005 (ip), vehicle: Klucel (hydroxypropylcellulose) (HPC)) 99 % of control; (dose: 6.0 mg/kg/injection, schedule: Q01DX005 (ip), vehicle: Klucel (hydroxypropylcellulose) (HPC)) 96 % of control.

`CCCCCCCN(CCCCCCC)CC(O)c1c(Br)c2ccccc2c2ccccc12` (stereo not given): the T/C by setting is: (dose: 10.0 mg/kg/injection, schedule: Q01DX009 (ip), vehicle: saline with Tween-80) 115 % of control; (dose: 20.0 mg/kg/injection, schedule: Q01DX009 (ip), vehicle: saline with Tween-80) 115 % of control; (dose: 40.0 mg/kg/injection, schedule: Q01DX009 (ip), vehicle: saline with Tween-80) 98 % of control.

As to `O=C(CBr)c1cc2c(cc1Br)OCO2`, the T/C was 102 % of control (dose: 12.5 mg/kg/injection, schedule: Q01DX001 (ip), vehicle: Klucel (hydroxypropylcellulose) (HPC)); 104 % of control (dose: 25.0 mg/kg/injection, schedule: Q01DX001 (ip), vehicle: Klucel (hydroxypropylcellulose) (HPC)); 103 % of control (dose: 50.0 mg/kg/injection, schedule: Q01DX001 (ip), vehicle: Klucel (hydroxypropylcellulose) (HPC)).

On to `COc1ccccc1NC(=O)Oc1ccc(C(C)(CCC(=O)O)c2ccc(OC(=O)Nc3ccccc3OC)cc2)cc1`, for which the T/C (dose: 25.0 mg/kg/injection, schedule: Q01DX005 (ip), vehicle: saline with Tween-80) is 103 % of control; the T/C under setting [7] is 101 % of control and 104 % of control and 97 % of control; the T/C under setting [8] is 102 % of control and 105 % of control and 94 % of control; the T/C under setting [9] is 90 % of control and 97 % of control; the T/C (dose: 400.0 mg/kg/injection, schedule: Q01DX005 (ip), vehicle: saline with Tween-80) was 102 % of control.

For `O=C(OC(c1ccccc1)c1ccccc1)C1CSCN1C(=O)OCc1ccccc1[N+](=O)[O-]` (stereo not given), the T/C under setting [7] is 108 % of control, the T/C under setting [8] was 110 % of control and the T/C under setting [9] is 100 % of control.

For `c1ccc(-c2nc3ccccc3n2CCc2ccncc2)nc1`, the T/C by setting is: under setting [5], 107 % of control; under setting [6], 104 % of control.

The values are drawn from PubChem BioAssay AID330 (DTP/NCI, 2004).
